This data set concerns rodent carcinogenicity bioassays, tumor incidence. In words: CCRIS carcinogenicity studies. A digest of the protocol:
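NCI-built, expert-reviewed records of carcinogenicity and related test outcomes (mutagenicity, tumor promotion/inhibition) compiled from published and report sources, historical span 1985-2011, not updated.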

Molecules are shown by their SMILES. Active and inactive are the calls of the source. The rule behind the calls is not given here. Where a SMILES comes first, the peptide text is derived from it.

Consider `CN(C)c1ccc(Cc2ccc(N(C)C)cc2)cc1`, for which the carcinogen call (Species: MOUSE, Strain/Sex: B6C3F1/FEMALE, Route: ORAL, Dose: 0, 1250, 2500 PPM IN DIET FOR 78 WK (STUDY DURATION: 91 WK), Dose: 0, 1250, 2500 PPM IN DIET FOR 78 WK (STUDY DURATION: 91 WK), Tumor Site: Type of Lesion: LIVER: HEPATOCELLULAR ADENOMA OR CARCINOMA) is “active; positive”; the carcinogen call (Species: MOUSE, Strain/Sex: B6C3F1/MALE, Route: ORAL, Dose: 0, 1250, 2500 PPM IN DIET FOR 78 WK (STUDY DURATION: 91 WK), Dose: 0, 1250, 2500 PPM IN DIET FOR 78 WK (STUDY DURATION: 91 WK), Tumor Site: Type of Lesion: LIVER: HEPATOCELLULAR ADENOMA OR CARCINOMA) is given as “equivocal”; the carcinogen call (Species: RAT, Strain/Sex: F344/FEMALE, Route: ORAL, Dose: 0, 0.0375, 0.075% IN DIET FOR 59 WK (STUDY DURATION: 2 YR), Dose: 0, 0.0375, 0.075% IN DIET FOR 59 WK (STUDY DURATION: 2 YR), Tumor Site: Type of Lesion: THYROID GLAND: FOLLICULAR CARCINOMA) is “active; positive”; the carcinogen call (Species: RAT, Strain/Sex: F344/FEMALE, Route: ORAL, Dose: 0, 375, 750 PPM IN DIET FOR 59 WK (STUDY DURATION: 104 WK), Dose: 0, 375, 750 PPM IN DIET FOR 59 WK (STUDY DURATION: 104 WK), Tumor Site: Type of Lesion: THYROID GLAND: FOLLICULAR CELL ADENOMA OR CARCINOMA) is “active; positive”; the carcinogen call (Species: RAT, Strain/Sex: F344/MALE, Route: ORAL, Dose: 0, 0.0375, 0.075% IN DIET FOR 59 WK (STUDY DURATION: 2 YR), Dose: 0, 0.0375, 0.075% IN DIET FOR 59 WK (STUDY DURATION: 2 YR), Tumor Site: Type of Lesion: THYROID GLAND: FOLLICULAR CARCINOMA) is “active; positive”; the carcinogen call (Species: RAT, Strain/Sex: F344/MALE, Route: ORAL, Dose: 0, 375, 750 PPM IN DIET FOR 59 WK (STUDY DURATION: 104 WK), Dose: 0, 375, 750 PPM IN DIET FOR 59 WK (STUDY DURATION: 104 WK), Tumor Site: Type of Lesion: THYROID GLAND: FOLLICULAR CELL ADENOMA OR CARCINOMA) is “active; positive”.
For the molecule `CC(=O)N[C@@H](C=O)[C@@H](O)[C@H](O)[C@H](O)CO`, the carcinogen call is “inactive; negative” (Species: Rat, Strain/Sex: F344/Female, Route: Oral, Dose: 0, 2.5, 5% in diet for 104 wk) and “inactive; negative” (Species: Rat, Strain/Sex: F344/Male, Route: Oral, Dose: 0, 2.5, 5% in diet for 104 wk).
As to `NC(=O)OCCO`, the carcinogen call (Species: MOUSE, Strain/Sex: STRAIN-A/MALE, Route: INTRAPERITONEAL, Dose: 0, 1.12, 4.6, 11.2 MMOL/KG IN ISOTONIC SALINE ONCE AT 6 WK OF AGE (STUDY DURATION: 16 WK), Dose: 0, 1.12, 4.6, 11.2 MMOL/KG IN ISOTONIC SALINE ONCE AT 6 WK OF AGE (STUDY DURATION: 16 WK), Tumor Site: Type of Lesion: LUNG: ADENOMA) is “active; positive”.
With `O=C(O)CN(CC(=O)O)CC(=O)O`, the carcinogen call was “inactive; negative” (Species: MOUSE, Strain/Sex: B6C3F1/FEMALE, Route: ORAL, Dose: 0, 2500, 5000 PPM IN DIET (STUDY DURATION: 18 MO), Dose: 0, 2500, 5000 PPM IN DIET (STUDY DURATION: 18 MO)); “inactive; negative” (Species: MOUSE, Strain/Sex: B6C3F1/FEMALE, Route: ORAL, Dose: 0, 7500, 15000 PPM IN DIET, Dose: 0, 7500, 15000 PPM IN DIET); “inactive; negative” (Species: MOUSE, Strain/Sex: B6C3F1/MALE, Route: ORAL, Dose: 0, 2500, 5000 PPM IN DIET (STUDY DURATION: 18 MO), Dose: 0, 2500, 5000 PPM IN DIET (STUDY DURATION: 18 MO)); “active; positive” (Species: MOUSE, Strain/Sex: B6C3F1/MALE, Route: ORAL, Dose: 0, 7500, 15000 PPM IN DIET, Dose: 0, 7500, 15000 PPM IN DIET, Tumor Site: Type of Lesion: KIDNEY: MALIGNANT TUMOR); “active; positive” (Species: RAT, Strain/Sex: F344/FEMALE, Route: ORAL, Dose: 0, 200, 2000, 20000 PPM IN DIET (STUDY DURATION: 24 MO), Dose: 0, 200, 2000, 20000 PPM IN DIET (STUDY DURATION: 24 MO), Tumor Site: Type of Lesion: URINARY BLADDER: TUMOR, URETER: TUMOR, KIDNEY: TUMOR, Tumor Site: Type of Lesion: URINARY BLADDER: TUMOR, URETER: TUMOR, KIDNEY: TUMOR); “equivocal” (Species: RAT, Strain/Sex: F344/FEMALE, Route: ORAL, Dose: 0, 7500, 1500 PPM IN DIET (STUDY DURATION: 18 MO), Dose: 0, 7500, 1500 PPM IN DIET (STUDY DURATION: 18 MO), Tumor Site: Type of Lesion: URINARY BLADDER: PAPILLOMA OR SQUAMOUS CELL CARCINOMA OR TRANSITIONAL CELL CARCINOMA). Moreover, the carcinogen call was “active; positive” (Species: RAT, Strain/Sex: F344/FEMALE, Route: ORAL, Dose: 0, 7500, 15000 PPM IN DIET, Dose: 0, 7500, 15000 PPM IN DIET, Tumor Site: Type of Lesion: URINARY BLADDER: MALIGNANT TUMOR); “active; positive” (Species: RAT, Strain/Sex: F344/MALE, Route: ORAL, Dose: 0, 200, 2000, 20000 PPM IN DIET (STUDY DURATION: 24 MO), Dose: 0, 200, 2000, 20000 PPM IN DIET (STUDY DURATION: 24 MO), Tumor Site: Type of Lesion: KIDNEY: TUMOR, URETER: TUMOR); “equivocal” (Species: RAT, Strain/Sex: F344/MALE, Route: ORAL, Dose: 0, 7500, 15000 PPM IN DIET (STUDY DURATION: 18 MO), Dose: 0, 7500, 15000 PPM IN DIET (STUDY DURATION: 18 MO), Tumor Site: Type of Lesion: KIDNEY: TUBULAR CELL ADENOCARCINOMA OR SARCOMA METASTATIC OR HAMARTOMA, RENAL PELVIS: TRANSIT CELL PAPILLOMA); “inactive; negative” (Species: RAT, Strain/Sex: F344/MALE, Route: ORAL, Dose: 0, 7500, 15000 PPM IN DIET, Dose: 0, 7500, 15000 PPM IN DIET); “active; positive” (Species: RAT, Strain/Sex: SPRAGUE-DAWLEY/MALE, Route: ORAL, Dose: 0, 1000 PPM (PURITY NOT REPORTED) IN DRINKING WATER FOR 2 YR, Tumor Site: Type of Lesion: KIDNEY: TUBULAR CELL ADENOMA OR ADENOCARCINOMA).
For the molecule `CN(CCC=O)N=O`, the carcinogen call (Species: RAT, Strain/Sex: F344/MALE, Route: SUBCUTANEOUS, Dose: 0, 6.57 MG (0.057 MMOL) IN 0.3 ML TRIOCTANOIN 3 D/WK FOR 15 WK (STUDY DURATION: 100 WK), Tumor Site: Type of Lesion: NASAL CAVITY: PAPILLOMA, LIVER: ADENOMA, LUNG: ADENOMA, Tumor Site: Type of Lesion: NASAL CAVITY: PAPILLOMA, LIVER: ADENOMA, LUNG: ADENOMA) was “active; positive”.
For the molecule `ON=C1CCCC1`, the carcinogen call (Species: RAT, Strain/Sex: F344/MALE, Route: GAVAGE, Dose: 0, 2 MMOL/KG BW 1/WK FOR 50 WK (STUDY DURATION: 83 WK)) is “inactive; negative”.
Regarding `CCOS(=O)(=O)OCC`, the carcinogen call reads like this: (Species: RAT, Route: ORAL, Tumor Site: Type of Lesion: FORESTOMACH) “active; positive”; (Species: RAT, Route: SUBCUTANEOUS, Tumor Site: Type of Lesion: INJECTION SITE) “active; positive”.
Consider `COC(=O)[C@H](Cc1ccccc1)NC(=O)[C@@H](N)CC(=O)O` (H-Asp-Phe-OMe), for which the carcinogen call reads like this: (Species: MOUSE, Strain/Sex: SWISS/FEMALE, Route: INTRAVESICULAR, Dose: 0, 4-4.4 MG IN CHOLESTEROL PELLET (STUDY DURATION: 26 WK)) “inactive; negative”; (Species: MOUSE, Strain/Sex: SWISS/FEMALE, Route: INTRAVESICULAR, Dose: 0, 4-4.4 MG IN CHOLESTEROL PELLET (STUDY DURATION: 56 WK)) “inactive; negative”.
Take `CC(=O)N(O)c1ccc(-c2ccccc2)cc1`: the carcinogen call (Species: RAT, Strain/Sex: STRAIN-CD/FEMALE, Route: INTRAPERITONEAL, Dose: 0, 100 UMOL/KG BW 2/WK FOR 6 WK (STUDY DURATION: 62 WK)) was “inactive; negative”.
Turning to `O=C1OC2(c3ccccc31)c1ccc(O)c(Br)c1Oc1c2ccc(O)c1Br`, the carcinogen call is “inactive; negative” (Species: MOUSE, Strain/Sex: ICR/FEMALE, Route: DERMAL, Dose: 0, 1 MG IN 0.1 ML DISTILLED WATER 2/WK FOR A MEAN TOTAL DOSE OF 136.5 MG (STUDY DURATION: 18 MO)) and “inactive; negative” (Species: MOUSE, Strain/Sex: ICR/MALE, Route: DERMAL, Dose: 0, 1 MG IN 0.1 ML DISTILLED WATER 2/WK FOR A MEAN TOTAL DOSE OF 136.5 MG (STUDY DURATION: 18 MO)).
As for `C/C=C1/C[C@@H](C)[C@@](C)(O)C(=O)OC/C2=C/CN(C)CC[C@@H](OC1=O)C2=O`, the carcinogen call (Species: RAT, Strain/Sex: ACI/MALE, Route: INTRAPERITONEAL, Dose: 22 MG/KG IN SALINE 2/WK FOR 4 WK, THEN 1/WK FOR 52 WK, Tumor Site: Type of Lesion: LIVER: ADENOMA) was “active; positive”.

The values are drawn from PubChem BioAssay AID1259411 (Chemical Carcinogenesis Research Information System (CCRIS), 2018).
